Experimental data: the CheMixHub drug solubility set

Experiment: xn = mol fraction of the nth substance listed, in the solute-free solvent

CC(=O)Oc1cccc2c1C(=O)c1c(OC(C)=O)cc(C(=O)O)cc1C2=O + CC#N + CCO
solubility (g/100 g solution)
Conditions	273.15 K	278.15 K	283.15 K	288.15 K	293.15 K	298.15 K	303.15 K	308.15 K	313.15 K
x2 = 0.1109	0.00681	0.00922	0.0124	0.0163	0.0211	0.0275	0.0344	0.0422	0.0532
x2 = 0.2191	0.0086	0.0114	0.0156	0.0201	0.0251	0.0316	0.0396	0.0497	0.0623
x2 = 0.3248	0.0151	0.02	0.0259	0.032	0.0393	0.0474	0.0557	0.0657	0.0756
x2 = 0.428	0.0245	0.0312	0.039	0.0468	0.0553	0.0655	0.0782	0.0921	0.108
x2 = 0.5288	0.0313	0.0399	0.0509	0.0631	0.0754	0.0896	0.105	0.121	0.139
x2 = 0.6273	0.0353	0.0455	0.0574	0.0703	0.0834	0.0991	0.114	0.13	0.148
x2 = 0.7236	0.0286	0.0372	0.048	0.0598	0.0714	0.0842	0.098	0.113	0.129
x2 = 0.8178	0.0226	0.029	0.0374	0.0457	0.0538	0.0633	0.0742	0.0857	0.101
x2 = 0.9099	0.0216	0.0259	0.0322	0.0392	0.0467	0.0549	0.0647	0.0747	0.0869

CC(=O)Oc1cccc2c1C(=O)c1c(OC(C)=O)cc(C(=O)O)cc1C2=O + CC(=O)N(C)C + O
solubility (g/100 g solution)
Conditions	x2 = 0.02247	x2 = 0.04917	x2 = 0.08143	x2 = 0.1212	x2 = 0.1714	x2 = 0.2368	x2 = 0.3255	x2 = 0.4528	x2 = 0.6506
278.15 K	0.00282	0.0125	0.0358	0.0823	0.255	0.368	0.38	0.452	0.496
283.15 K	0.00402	0.0162	0.0459	0.107	0.313	0.441	0.521	0.622	0.691
288.15 K	0.00537	0.0204	0.0587	0.137	0.374	0.525	0.683	0.821	0.927
293.15 K	0.00727	0.0256	0.0748	0.173	0.444	0.633	0.885	1.07	1.18
298.15 K	0.00929	0.0324	0.0937	0.219	0.532	0.779	1.12	1.35	1.47
303.15 K	0.0112	0.0405	0.119	0.274	0.633	0.95	1.38	1.69	1.81
308.15 K	0.0139	0.0502	0.149	0.343	0.746	1.16	1.7	2.1	2.29
313.15 K	0.0168	0.0643	0.184	0.429	0.862	1.44	2.04	2.54	2.83

CN1CCC(N(Cc2cccs2)c2ccccc2)CC1 + CC(C)O + O
solubility (g/100 g solution)
Conditions	278.15 K	283.15 K	288.15 K	293.15 K	298.15 K	303.15 K	308.15 K	313.15 K	318.15 K	323.15 K
x2 = 0.03225	0.141	0.15	0.16	0.173	0.19	0.208	0.229	0.249	0.274	0.301
x2 = 0.06974	0.326	0.345	0.365	0.394	0.428	0.466	0.508	0.551	0.601	0.656
x2 = 0.1139	0.573	0.606	0.64	0.689	0.746	0.809	0.879	0.952	1.03	1.13
x2 = 0.1666	0.834	0.881	0.933	1.01	1.09	1.18	1.28	1.39	1.51	1.64
x2 = 0.2307	1.04	1.1	1.18	1.28	1.4	1.51	1.64	1.78	1.95	2.12
x2 = 0.3103	1.24	1.33	1.43	1.54	1.67	1.81	1.96	2.11	2.3	2.52
x2 = 0.4117	1.4	1.51	1.62	1.75	1.93	2.12	2.32	2.54	2.77	3.04
x2 = 0.5454	1.55	1.68	1.82	1.99	2.15	2.34	2.58	2.83	3.11	3.42
x2 = 0.7297	1.61	1.77	1.95	2.14	2.35	2.6	2.85	3.13	3.41	3.74

Cc1ccc2cc(Br)ccc2n1 + CC(C)O + O
solubility (g/100 g solution)
Conditions	278.15 K	283.15 K	288.15 K	293.15 K	298.15 K	303.15 K	308.15 K	313.15 K	318.15 K	323.15 K
x2 = 0.03225	0.0479	0.0553	0.0644	0.0741	0.0853	0.0974	0.113	0.129	0.148	0.169
x2 = 0.06974	0.141	0.161	0.185	0.211	0.241	0.273	0.312	0.356	0.403	0.457
x2 = 0.1139	0.263	0.301	0.346	0.393	0.446	0.505	0.576	0.655	0.74	0.837
x2 = 0.1666	0.372	0.427	0.492	0.56	0.637	0.723	0.826	0.94	1.06	1.2
x2 = 0.2307	0.427	0.503	0.586	0.671	0.769	0.881	0.997	1.15	1.31	1.5
x2 = 0.3103	0.482	0.567	0.673	0.787	0.904	1.04	1.19	1.37	1.57	1.79
x2 = 0.4117	0.539	0.642	0.767	0.896	1.04	1.2	1.39	1.59	1.81	2.06
x2 = 0.5454	0.596	0.7	0.856	1.03	1.2	1.4	1.63	1.89	2.17	2.48
x2 = 0.7297	0.657	0.815	0.972	1.16	1.33	1.56	1.81	2.1	2.4	2.78

Nc1cccc2ccncc12 + CC(C)O + O
solubility (g/100 g solution)
Conditions	278.15 K	283.15 K	288.15 K	293.15 K	298.15 K	303.15 K	308.15 K	313.15 K	318.15 K	323.15 K
x2 = 0.03225	0.0706	0.0813	0.0925	0.109	0.123	0.142	0.165	0.191	0.218	0.252
x2 = 0.06974	0.141	0.163	0.184	0.215	0.244	0.279	0.323	0.372	0.424	0.489
x2 = 0.1139	0.235	0.271	0.306	0.357	0.405	0.463	0.534	0.617	0.702	0.808
x2 = 0.1666	0.339	0.393	0.445	0.519	0.59	0.676	0.78	0.902	1.03	1.18
x2 = 0.2307	0.393	0.466	0.559	0.658	0.767	0.883	1.02	1.18	1.36	1.58
x2 = 0.3103	0.5	0.587	0.696	0.819	0.952	1.09	1.26	1.47	1.68	1.95
x2 = 0.4117	0.573	0.687	0.826	0.98	1.13	1.3	1.5	1.75	2.02	2.35
x2 = 0.5454	0.633	0.765	0.915	1.08	1.25	1.46	1.7	1.97	2.3	2.69
x2 = 0.7297	0.576	0.73	0.906	1.1	1.31	1.58	1.84	2.16	2.51	2.94

Nc1cccc2ccncc12 + CCCO + O
solubility (g/100 g solution)
Conditions	278.15 K	283.15 K	288.15 K	293.15 K	298.15 K	303.15 K	308.15 K	313.15 K	318.15 K	323.15 K
x2 = 0.03225	0.0813	0.0931	0.106	0.124	0.14	0.162	0.187	0.216	0.247	0.285
x2 = 0.06974	0.175	0.199	0.226	0.263	0.297	0.341	0.393	0.45	0.513	0.589
x2 = 0.1139	0.299	0.34	0.385	0.448	0.506	0.58	0.668	0.764	0.87	0.997
x2 = 0.1666	0.433	0.493	0.56	0.652	0.739	0.848	0.978	1.12	1.27	1.46
x2 = 0.2307	0.521	0.606	0.711	0.84	0.964	1.11	1.28	1.47	1.69	1.94
x2 = 0.3103	0.618	0.731	0.862	1.01	1.16	1.33	1.55	1.78	2.06	2.38
x2 = 0.4117	0.686	0.822	0.992	1.18	1.36	1.59	1.84	2.12	2.44	2.82
x2 = 0.5454	0.774	0.916	1.11	1.32	1.53	1.78	2.08	2.41	2.78	3.21
x2 = 0.7297	0.791	0.959	1.16	1.39	1.64	1.92	2.24	2.6	3.03	3.54
